{"source": "paper PMC12348691", "about": "“Amesilide, a New Bicyclic Polyketide from the Marine Fungus Amesia nigricolor MUT6601” (Molecules, 2025)", "key": {"Candida albicans (CA01)": {"system": "Candida albicans (CA01)", "experiment": "Antifungal assay (MIC), Candida albicans CA01", "assay_type": "cell-based", "conditions": "48 h", "experimental": "(§1) Stock solutions of all compounds were prepared in DMSO. Two bacterial (E. coli UTI89 and S. aureus S25) and two yeast strains (C. krusei CK1 and C. albicans CA01) have been used for this study. […] Each culture was diluted 12 times to have a final OD value of 0.1. Then, 100 µL from the diluted (OD of 0.1) bacterial culture and 0.5 μL of each stock solution was added to the corresponding wells (in triplicate) in a 96-well plate to a final concentration of 50 μM. For the antifungal assay, the two strains C. krusei CK1 and C. albicans CA01 were spread on Petri plates with YPD (yeast-extract peptone dextrose) agar. Later, an isolated colony was collected in a tube containing 5mL of RGM (RPMI 1640® (21875, Invitrogen GIBCO®) + 34.56g/L MOPS) to have an OD of 0.05. The fungal culture and stock solutions of compounds were diluted and added to the wells as indicated for the antibacterial activity assay. To determine the potential inhibitory effect of extracts on fungal growth, absorbance at t = 0 h, t = 20 h (for antibacterial assay), and t = 48 h (for antifungal assay) were measured with the Biotek Synergy 2 Plate Reader at a wavelength of 600 nm and analyzed with the software Gen5 v3.08. Then, the differential OD was calculated (ODT48/20-ODT0) and compared to solvent control. […] Ampicillin was used as positive control (MIC of 0.5 µg/mL for all bacteria and 1.0 µg/mL for all fungi)."}, "(CK01)": {"system": "(CK01)", "experiment": "Antifungal assay (MIC), Candida strain CK01", "assay_type": "cell-based, Candida tropicalis", "conditions": "48 h"}, "[1]": {"system": "Leishmania infantum (LI01)", "experiment": "Antiparasitic activity (MIC), Leishmania infantum LI01", "assay_type": "cell-based"}, "human monocytes (THP-1)": {"system": "human monocytes (THP-1)", "experiment": "Cytotoxicity assay (AlamarBlue), THP-1", "assay_type": "cell-based", "conditions": "PMA-activated", "experimental": "(§2) Human erythrocytes (RBC), human monocytes (THP-1), and peripheral blood mononuclear cells (PBMC) were used for this study. THP-1 cells (TIB-202) were obtained from ATCC (https://www.atcc.org (accessed on 26 January 2025)) and activated with PMA (phorbol myristate acetate) (100 ng/mL) for 48 h. Cells were grown in RPMI 1640 medium supplemented with fetal bovine serum (FBS) 10% (10270-098, GIBCO®) and penicillin/streptomycin (1%) (15140-122 GIBCO®) at 37 °C under 5% CO2 atmosphere.\n(§3) For the cytotoxicity assay, THP-1 and PBMC medium cultures were added into 96-well plates with 5 × 10^3 cells per well. A two-fold dilution concentration series of each compound was added to the plates to final concentrations of 200 − 6.25 μM. AlamarBlue (DAL1025, ThermoFisher, Waltham, MA, USA), a ready-to-use resazurin-based solution, was used to measure cell viability after treatment with the extracts. A total of 10 µL was added to each well and the plate was incubated for 6–8 h at 37 °C. Fluorescence was then measured with the Biotek Synergy 2 Plate Reader using excitation at 530 nm and emission at 590 nm. The percentage of cell death was then calculated using the following formula (Equation (3)):(3) % Cellular Death = 100 × ODt − OD100/OD0 − OD100 where ODt = the fluorescence value of the test compound, OD100 = the fluorescence value for the culture medium, and OD0 = the fluorescence value for Triton 0.12%."}, "human erythrocytes (RBC)": {"system": "human erythrocytes (RBC)", "experiment": "Hemolytic assay, human erythrocytes", "assay_type": "cell-based", "conditions": "for IC50: Homo sapiens, Erythrocyte, 0.5 h; for cytotoxicity against human erythrocytes (RBC): result in words", "experimental": "as §2\nFor the hemolytic assay, freshly obtained human erythrocytes (RBCs) from patients were washed twice with PBS (pH 7.4). This assay was performed at 10% hematocrit with two-fold serial dilutions from 200 μM of test compounds in a final volume of 100 μL, followed by incubation at 37 °C under 5% CO2 atmosphere for 30 min. Later, the plates were centrifugated at 3000g for 5 min and supernatant was transferred onto a new 96-well plate. Finally, RBC lysis was determined by the absorbance of the supernatant at 540 nm. Results were calculated with the following formula (Equation (2)):(2) % hemolysis = 100 × ODt − OD100/OD0 − OD100 where ODt = the absorbance value of test compounds; OD100 = the absorbance value of the medium; and OD0 = the absorbance value of the wells treated with 1% Triton-X."}, "[2]": {"system": "peripheral blood mononuclear cells (PBMC)", "experiment": "Cytotoxicity assay (AlamarBlue), PBMC", "assay_type": "cell-based, human", "conditions": "PBMC primary cells", "experimental": "as §2, §3"}, "Escherichia coli (UTI89)": {"system": "Escherichia coli (UTI89)", "experiment": "Antibacterial assay (MIC), Escherichia coli UTI89", "assay_type": "cell-based", "conditions": "20 h", "experimental": "as §1"}, "[3]": {"system": "Staphylococcus aureus (S25)", "experiment": "Antibacterial assay (MIC/MBC), Staphylococcus aureus S25", "assay_type": "cell-based", "conditions": "for MIC: 20 h", "experimental": "as §1"}, "[4]": {"system": "all bacteria (E. coli UTI89 and S. aureus S25)", "experiment": "Antibacterial assay, positive control, all bacteria", "assay_type": "cell-based", "conditions": "Escherichia coli", "experimental": "as §1"}, "[5]": {"system": "all fungi (C. krusei CK1 and C. albicans CA01)", "experiment": "Antifungal assay, positive control, all fungi", "assay_type": "cell-based", "conditions": "Pichia kudriavzevii", "experimental": "as §1"}, "Staphylococcus aureus": {"system": "Staphylococcus aureus", "conditions": "result in words; cited from earlier work"}, "[6]": {"system": "Niemann-Pick C1-like 1 (NPC1L1) protein", "design": "method as in PMID 30665368", "conditions": "reducing the cholesterol absorption; cited from earlier work"}, "[7]": {"conditions": "Homo sapiens, THP-1 cell line, read-out: IC50"}, "[8]": {"conditions": "RBC primary cells, hemolysis, 30 min, 10% hematocrit, read-out: IC50"}, "[9]": {"conditions": "Staphylococcus aureus (S25), OD 600 nm, inhibiting bacterial growth, read-out: MIC"}, "[10]": {"conditions": "Homo sapiens, THP-1, THP-1 cell line"}}, "note": "Like-named read-outs stand apart in the source and are kept apart here.", "data": [{"molecule": "C[C@@H]1[C@H](O)[C@@H](C)/C=C/C=C/C=C/C=C/C=C/C=C/C=C/[C@H](O[C@@H]2O[C@H](C)[C@@H](O)[C@H](N)[C@@H]2O)C[C@@H]2O[C@](O)(C[C@@H](O)C[C@@H](O)[C@H](O)CC[C@@H](O)C[C@@H](O)CC(=O)O[C@H]1C)C[C@H](O)[C@H]2C(=O)O", "note": "[Amphotericin B, reference compound]", "values": [{"measurement": "MIC", "setting": "Candida albicans (CA01); Candida albicans (CA01), OD 600 nm, read-out: MIC", "result": 0.2, "unit": "µM"}, {"measurement": "MIC", "setting": "(CK01); Candida tropicalis (CK01), OD 600 nm, read-out: MIC", "result": 0.2, "unit": "µM"}, {"measurement": "MIC", "setting": "[1]; Leishmania infantum (LI01), read-out: MIC", "result": 0.39, "unit": "µM"}, {"measurement": "IC50", "setting": "human monocytes (THP-1); [7]", "result": 3.13, "unit": "µM"}, {"measurement": "IC50", "setting": "human erythrocytes (RBC); [8]", "result": 25, "unit": "µM"}, {"measurement": "IC50", "setting": "[2]; Homo sapiens, read-out: IC50", "result": 6.25, "unit": "µM"}]}, {"molecule": "CC1(C)S[C@@H]2[C@H](NC(=O)[C@H](N)c3ccccc3)C(=O)N2[C@H]1C(=O)O", "note": "[Ampicillin, reference compound]", "values": [{"measurement": "MIC", "setting": "Escherichia coli (UTI89); Escherichia coli (UTI89), OD 600 nm, read-out: MIC", "result": "> 100", "unit": "µM"}, {"measurement": "MIC", "setting": "[3]; [9]", "result": 1.56, "unit": "µM"}, {"measurement": "IC50", "setting": "human monocytes (THP-1); [7]", "result": "> 200", "unit": "µM"}, {"measurement": "IC50", "setting": "human erythrocytes (RBC); [8]", "result": "> 200", "unit": "µM"}, {"measurement": "IC50", "setting": "[2]; Homo sapiens, read-out: IC50", "result": "> 200", "unit": "µM"}, {"measurement": "MIC", "setting": "[4]", "result": 0.5, "unit": "µg/mL"}, {"measurement": "MIC", "setting": "[5]", "result": 1, "unit": "µg/mL"}]}, {"molecule": "CC1=CC2(O)C(C3(C)CC(C)CC(C)C(=O)O3)CC(=O)C23C(=O)N(C)C(=O)C(c2ccccc2)C3C1C", "note": "(stereo not drawn) [compound 2, chamiside A]", "values": [{"measurement": "antibacterial activity against Staphylococcus aureus", "setting": "Staphylococcus aureus", "result": "moderate antibacterial activity"}]}, {"molecule": "C[C@H]1Oc2cc3c(-c4c(O)cc(O)c5c(O)c6c(cc45)O[C@H](C)[C@@H](C)C6=O)c(O)cc(O)c3c(O)c2C(=O)[C@@H]1C", "note": "[compound 7, chaetochromin A]", "values": [{"measurement": "MIC", "setting": "Escherichia coli (UTI89); Escherichia coli", "result": "> 100", "unit": "µM"}, {"measurement": "MBC", "setting": "[3]; Staphylococcus aureus", "result": 12.5, "unit": "µM"}, {"measurement": "MIC", "setting": "[3]; [9]", "result": 6.25, "unit": "µM"}, {"measurement": "MIC", "setting": "[3]; Staphylococcus aureus", "result": 6.25, "unit": "µM"}, {"measurement": "MIC", "setting": "Candida albicans (CA01); Candida albicans", "result": "> 100", "unit": "µM"}, {"measurement": "MIC", "setting": "(CK01); Candida tropicalis", "result": "> 100", "unit": "µM"}, {"measurement": "MIC", "setting": "[1]; Leishmania infantum", "result": "> 100", "unit": "µM"}, {"measurement": "IC50", "setting": "human monocytes (THP-1); [10]", "result": 33.6, "unit": "µM"}, {"measurement": "IC50", "setting": "human monocytes (THP-1); THP-1 cell line", "result": "33.6 to 40", "unit": "µM"}, {"measurement": "IC50", "setting": "human erythrocytes (RBC)", "result": "> 200", "unit": "µM"}, {"measurement": "cytotoxicity against human erythrocytes (RBC)", "setting": "human erythrocytes (RBC)", "result": "no cytotoxicity"}, {"measurement": "IC50", "setting": "[2]; Homo sapiens, PBMC", "result": 35.4, "unit": "µM"}, {"measurement": "IC50", "setting": "[2]", "result": "33.6 to 40", "unit": "µM"}, {"measurement": "antibacterial activity against S. aureus", "setting": "Staphylococcus aureus", "result": "strong antibacterial activity"}]}, {"molecule": "C[C@@H]1Oc2cc3c(-c4c(O)cc(O)c5c(O)c6c(cc45)O[C@H](C)[C@@H](C)C6=O)c(O)cc(O)c3c(O)c2C(=O)[C@@H]1C", "note": "[compound 8, chaetochromin B]", "values": [{"measurement": "MIC", "setting": "Escherichia coli (UTI89); Escherichia coli", "result": "> 100", "unit": "µM"}, {"measurement": "MBC", "setting": "[3]; Staphylococcus aureus", "result": 12.5, "unit": "µM"}, {"measurement": "MIC", "setting": "[3]; [9]", "result": 6.25, "unit": "µM"}, {"measurement": "MIC", "setting": "[3]; Staphylococcus aureus", "result": 6.25, "unit": "µM"}, {"measurement": "MIC", "setting": "Candida albicans (CA01); Candida albicans", "result": 100, "unit": "µM"}, {"measurement": "MIC", "setting": "(CK01); Candida tropicalis", "result": "> 100", "unit": "µM"}, {"measurement": "MIC", "setting": "[1]; Leishmania infantum", "result": "> 100", "unit": "µM"}, {"measurement": "IC50", "setting": "human monocytes (THP-1); [10]", "result": 37.3, "unit": "µM"}, {"measurement": "IC50", "setting": "human monocytes (THP-1); THP-1 cell line", "result": "33.6 to 40", "unit": "µM"}, {"measurement": "IC50", "setting": "human erythrocytes (RBC)", "result": "> 200", "unit": "µM"}, {"measurement": "cytotoxicity against human erythrocytes (RBC)", "setting": "human erythrocytes (RBC)", "result": "no cytotoxicity"}, {"measurement": "IC50", "setting": "[2]; Homo sapiens, PBMC", "result": 40, "unit": "µM"}, {"measurement": "IC50", "setting": "[2]", "result": "33.6 to 40", "unit": "µM"}]}, {"molecule": "Chamiside F", "values": [{"measurement": "inhibitory activity against NPC1L1", "setting": "[6]", "result": "inhibitory activity"}]}]}
